Laboratory results from patent US5405848A, “Substituted thiazolylaminotetrahydropyridopyrimidines derivatives useful as platelet aggregation inhibitors” (Ortho Pharmaceutical Corporation, priority 1993, dated 1995).

What was measured:
[1] = tested on: platelets; assay: Platelet Aggregation Inhibition Activity (gel-filtered platelets, thrombin or ADP agonist, light transmission); type: cell-based; settings: 37° C.; for IC50: unit inferred
Protocol: The percentage of platelet aggregation is calculated as an increase in light transmission of drug treated platelet concentrate vs control treated platelet concentrate. Blood is obtained from drug free, normal donors and placed into tubes containing 0.13 M sodium citrate (two sources are routinely used: platelet concentrate obtained from Biological Specialty Corp., Lansdale, Pa. or whole blood obtained from donors). Platelet rich plasma (PRP) is collected by centrifugation of the concentrate or whole blood at 130 ×g for 15 min at 25° C. The PRP (5 mL) is gel filtered through Sepharose 2B (bed volume 50 mL), and the platelet count is adjusted to 2×10^7 platelets per sample. The following constituents are added to a siliconized cuvette: 250 μL of the concentrated platelet flitrate, 100 μL of Tyrode's buffer (0.14 M NaCl, 0.0027 M KCl, 0.012 M NaHCO3, 0.76 mM Na2HPO4, 0.0055 M glucose and 2 mg/mL BSA pH 7.4), 50 μL of 2 mM calcium and test drug […]. Aggregation is monitored in a dual channel Chrono-log Aggregometer for three minutes following the addition of agonist (thrombin 50 μL of 1 unit/mL, or ADP 50 μL of 100 μM). The final assay volume is 500 μL. The reaction takes place at 37° C. The peak aggregation response is calculated as the increase in light transmission units over a three minute period. The difference of the increase in light transmission between control and drug treated platelets is then expressed as a percent of the nondrug treated controls.

[2] = target: T1, fibrinogen receptor of blood platelets (activated platelets) (Homo sapiens, UniProt P05106+P08514); assay: Fibrinogen Binding (125I-fibrinogen binding to thrombin-activated platelets); settings: 125I-fibrinogen 0.15 μM; for IC50: unit inferred
T1 construct: from tissue
Protocol: The compounds of the invention as identified above are evaluated for platelet aggregation inhibition activity as indicated by the percentage of non-aggregated platelets which are available for binding in accordance with the following procedure.
^125 I-Fibrinogen binding to activated platelets is a modification of the procedure described by Bennett et al., 1988. Briefly, 40 mL of PRP are centrifuged at 120 ×g to remove contaminating red cells. Aspirin (50 μM) is added and the PRP is incubated at 37° C. for 20 minutes. The pH of the PRP is adjusted to 6.5 with 3.8% sodium citrate and 0.9 μM of PGE1 is added. Platelets are concentrated by a 300 ×g centrifugation (10 min) and the pellet is resuspended in 4 mL. of Tyrode's buffer. The platelet suspension (4 mL) is gel-filtered through a Sepharose-2B column (50 mL bed volume). The platelet count is adjusted to 1×10^8 platelets per 200 mL. The binding reaction is performed in polystyrene tubes (final volume 500 mL). Reagents are added in the following order: 80 mL of Tyrode's buffer, 50 mL of CaCl2 (final concentration (f.c.) […]) and 50 mL of thrombin (f.c. 0.1 unit/mL). The platelet suspension is then added and the mixture is allowed to incubate at room temperature for 2 minutes. Hirudin (50 mL, f.c. 0.5 unit/mL) is immediately added to prevent the catalytic activity of thrombin. Various concentrations of the compound to be tested […] with the competing radioligand ^125 I-fibrinogen (f.c. of 0.15 μM) are added. The mixture is incubated for 10 minutes at room temperature. To terminate the binding reaction the platelets are sedimented (10,000 ×g for 3 minutes) through silicone oil (3:1 hi-phenol 550/methyl silicone 200, W. F. Nye, Inc., New Bedford, Mass.), in an Eppendorf centrifuge.
The tips of the centrifuge tubes containing the pelleted platelets are cut off and counted for ^125 I-fibrinogen associated with the stimulated platelets. The amount of platelet radioactivity measured in the presence of nonlabeled fibrinogen (4 mg/mL) is considered the nonspecific binding.
Data are expressed as a percent at concentrations of 30 μM of specifically bound ^125 I-fibrinogen to the platelets in Table 5 below. Positive percentages of fibrinogen binding indicates higher activity for inhibiting platelet aggregation since only non-aggregated or free platelets are available for fibrinogen binding. Alternatively, a concentration is provided in lieu of a percentage to indicate the IC50 of concentration of compound which provides 50% fibrinogen binding.

T1 sequence (P08514 32-887 limits assumed): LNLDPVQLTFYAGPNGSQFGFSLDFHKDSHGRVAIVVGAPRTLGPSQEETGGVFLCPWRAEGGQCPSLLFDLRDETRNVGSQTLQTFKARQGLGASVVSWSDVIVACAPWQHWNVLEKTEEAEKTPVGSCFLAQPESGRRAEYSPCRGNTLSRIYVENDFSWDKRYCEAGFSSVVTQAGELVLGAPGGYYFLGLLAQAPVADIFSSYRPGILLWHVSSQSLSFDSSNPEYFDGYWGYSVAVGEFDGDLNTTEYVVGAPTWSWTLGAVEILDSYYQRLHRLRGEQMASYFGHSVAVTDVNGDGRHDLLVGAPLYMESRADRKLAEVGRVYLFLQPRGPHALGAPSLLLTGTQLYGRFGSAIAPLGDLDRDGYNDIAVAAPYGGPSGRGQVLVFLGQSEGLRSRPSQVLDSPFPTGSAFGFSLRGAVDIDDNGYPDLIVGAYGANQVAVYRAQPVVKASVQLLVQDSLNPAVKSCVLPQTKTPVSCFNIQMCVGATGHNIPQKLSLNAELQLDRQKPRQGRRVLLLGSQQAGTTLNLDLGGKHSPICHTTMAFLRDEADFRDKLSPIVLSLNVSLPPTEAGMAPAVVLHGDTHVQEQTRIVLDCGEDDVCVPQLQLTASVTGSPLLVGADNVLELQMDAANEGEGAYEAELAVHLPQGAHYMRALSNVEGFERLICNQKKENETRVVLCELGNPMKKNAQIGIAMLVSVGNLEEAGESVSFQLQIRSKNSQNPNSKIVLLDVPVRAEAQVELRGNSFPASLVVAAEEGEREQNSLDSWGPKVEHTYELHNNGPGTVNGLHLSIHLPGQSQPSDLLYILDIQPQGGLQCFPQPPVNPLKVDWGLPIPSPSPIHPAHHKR
T1 sequence (P08514 891-1039 partner limits assumed): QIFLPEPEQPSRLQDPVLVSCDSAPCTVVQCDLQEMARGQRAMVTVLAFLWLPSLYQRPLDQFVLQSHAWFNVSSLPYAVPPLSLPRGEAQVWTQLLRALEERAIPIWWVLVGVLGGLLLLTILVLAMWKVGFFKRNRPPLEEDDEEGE
T1 sequence (P05106 27-788): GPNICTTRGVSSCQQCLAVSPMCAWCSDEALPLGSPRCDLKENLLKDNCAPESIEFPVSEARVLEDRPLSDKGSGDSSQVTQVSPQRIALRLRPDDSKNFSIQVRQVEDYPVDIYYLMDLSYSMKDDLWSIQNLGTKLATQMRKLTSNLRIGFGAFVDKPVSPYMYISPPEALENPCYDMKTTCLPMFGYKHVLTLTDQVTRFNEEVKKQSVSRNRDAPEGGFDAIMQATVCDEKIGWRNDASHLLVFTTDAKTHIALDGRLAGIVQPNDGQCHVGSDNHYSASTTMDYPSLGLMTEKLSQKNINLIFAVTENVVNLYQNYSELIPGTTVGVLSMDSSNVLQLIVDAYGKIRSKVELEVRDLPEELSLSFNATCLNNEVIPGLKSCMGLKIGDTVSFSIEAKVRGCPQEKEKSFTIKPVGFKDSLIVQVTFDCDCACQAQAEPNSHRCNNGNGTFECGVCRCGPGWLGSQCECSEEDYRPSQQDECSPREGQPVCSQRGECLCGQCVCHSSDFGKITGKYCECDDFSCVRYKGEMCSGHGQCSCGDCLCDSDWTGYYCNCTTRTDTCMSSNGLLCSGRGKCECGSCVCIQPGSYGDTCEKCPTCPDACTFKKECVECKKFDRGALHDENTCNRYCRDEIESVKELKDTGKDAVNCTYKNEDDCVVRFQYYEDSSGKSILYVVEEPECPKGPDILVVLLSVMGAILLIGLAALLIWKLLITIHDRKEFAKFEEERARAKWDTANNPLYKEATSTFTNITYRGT

Structure (SMILES)	inhibition at 30 µM [2]	IC50 [2]	IC50 [1]	inhibition at 20 µM [1]
Cc1ccc(-c2csc(Nc3ncc4c(n3)CCNC4)n2)cc1 [Cmpd 23]				25%
COc1ccc(-c2csc(Nc3nc4c(c(-c5ccccc5)n3)CNCC4)n2)cc1 [Cmpd 18]				25%
CCCNCCC(=O)N1CCc2nc(Nc3nc(-c4cccc(Cl)c4)cs3)nc(-c3ccccc3)c2C1 [Cmpd 28]				56%
c1ccc(-c2csc(Nc3ncc4c(n3)CCNC4)n2)cc1 [Cmpd 24]				11%
O=C(c1ccccc1)N1CCc2nc(Nc3nc(-c4ccc(F)cc4)cs3)nc(-c3ccccc3)c2C1 [Cmpd 9]				27%

Second part, led by results:

inhibition at 30 µM [2]	IC50 [2]	IC50 [1]	Structure (SMILES)	inhibition at 20 µM [1]
87%	20.9 µM	6.1 µM	Clc1ccc(-c2csc(Nc3nc4c(c(-c5ccccc5)n3)CNCC4)n2)cc1 [Cmpd 21]	84%
28%			Cc1ccc(-c2csc(Nc3nc4c(c(-c5ccccc5)n3)CNCC4)n2)cc1 [Cmpd 15, 2-[4-[4-Methylphenyl]thiazol-2-yl]amino-5,6,7,8-tetrahydro-4-phenylpyrimidino[4,5-d]pyridine]	85%
95%	20.9 µM	5.8 µM	Fc1ccc(-c2csc(Nc3nc4c(c(-c5ccccc5)n3)CNCC4)n2)cc1 [Cmpd 20]	87%
69%	7.7 µM	7.93 µM	c1ccc(-c2csc(Nc3nc4c(c(-c5ccccc5)n3)CNCC4)n2)cc1 [Cmpd 13, 2-[4-Phenylthiazol-2-yl]amino-5,6,7,8-tetrahydro-4-phenylpyrimidino[4,5-d]pyridine]	100%
39%			Cc1ccc(-c2csc(Nc3nc4c(c(-c5ccccc5)n3)CN(C(=O)CCN3CCN(C)CC3)CC4)n2)cc1 [Cmpd 26]	81%
